Results taken from PubChem BioAssay AID330 (DTP/NCI, 2004).
Where “and” joins values, the source holds several entries; their conditions need not be identical. Equal entries are not always repeated. Inconclusive results and toxic doses are left out.

Tested on: P388 leukemia ip, CD2F1 mice, survival T/C
Experiment: NCI In Vivo Anticancer Drug Screen. Data for tumor model P388 Leukemia (intraperitoneal) in CD2F1 (CDF1) mice
Settings: endpoint: median survival time, higher = longer survival
Procedure, shortened: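 Mice carrying the transplanted tumor received test compound or vehicle. Survival was recorded in each group, and the value is the treated-group measurement divided by that of the vehicle-treated control group.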

[1] = dose: 50.0 mg/kg/injection, schedule: Q01DX005 (ip), vehicle: saline with Tween-80
[2] = dose: 100.0 mg/kg/injection, schedule: Q01DX005 (ip), vehicle: saline with Tween-80
[3] = dose: 100.0 mg/kg/injection, schedule: Q04DX003 (ip), vehicle: saline with Tween-80
[4] = dose: 200.0 mg/kg/injection, schedule: Q01DX005 (ip), vehicle: saline with Tween-80
[5] = dose: 200.0 mg/kg/injection, schedule: Q04DX003 (ip), vehicle: saline with Tween-80
[6] = dose: 400.0 mg/kg/injection, schedule: Q04DX003 (ip), vehicle: saline with Tween-80
[7] = dose: 50.0 mg/kg/injection, schedule: Q01DX009 (ip), vehicle: Klucel (hydroxypropylcellulose) (HPC)
[8] = dose: 100.0 mg/kg/injection, schedule: Q01DX009 (ip), vehicle: Klucel (hydroxypropylcellulose) (HPC)
[9] = dose: 50.0 mg/kg/injection, schedule: Q01DX005 (ip), vehicle: Klucel (hydroxypropylcellulose) (HPC)

SMILES: O=C1N[C@@H]([C@H]2CC[C@H](Cl)CN2)C(=O)N[C@H]1[C@H]1CC[C@H](Cl)CN1
- T/C (dose: 0.25 mg/kg/injection, schedule: Q01DX005 (iv), vehicle: saline): 118 % of control
- T/C (dose: 0.39 mg/kg/injection, schedule: Q01DX009 (ip), vehicle: water): 158 % of control and 182 % of control
- T/C (dose: 0.5 mg/kg/injection, schedule: Q01DX005 (iv), vehicle: saline): 118 % of control
- T/C (dose: 0.78 mg/kg/injection, schedule: Q01DX009 (ip), vehicle: water): 184 % of control and 214 % of control
- T/C (dose: 1.0 mg/kg/injection, schedule: Q01DX001 (ip), vehicle: saline): 123 % of control
- T/C (dose: 1.0 mg/kg/injection, schedule: Q01DX005 (ip), vehicle: saline): 181 % of control
- T/C (dose: 1.0 mg/kg/injection, schedule: Q01DX005 (iv), vehicle: saline): 120 % of control
- T/C (dose: 1.56 mg/kg/injection, schedule: Q01DX009 (ip), vehicle: water): 122 % of control and 223 % of control
- T/C (dose: 2.0 mg/kg/injection, schedule: Q01DX001 (ip), vehicle: saline): 123 % of control
- T/C (dose: 2.0 mg/kg/injection, schedule: Q01DX005 (ip), vehicle: saline): 227 % of control
- T/C (dose: 2.0 mg/kg/injection, schedule: Q01DX005 (iv), vehicle: saline): 157 % of control
- T/C (dose: 2.0 mg/kg/injection, schedule: Q01DX005 (oral), vehicle: saline): 180 % of control
- T/C (dose: 4.0 mg/kg/injection, schedule: Q01DX001 (ip), vehicle: saline): 151 % of control
- T/C (dose: 4.0 mg/kg/injection, schedule: Q01DX005 (ip), vehicle: saline): 100 % of control
- T/C (dose: 4.0 mg/kg/injection, schedule: Q01DX005 (iv), vehicle: saline): 200 % of control
- T/C (dose: 4.4 mg/kg/injection, schedule: Q01DX001 (ip), vehicle: saline): 172 % of control and 176 % of control and 177 % of control
- T/C (dose: 6.7 mg/kg/injection, schedule: Q01DX001 (ip), vehicle: saline): 172 % of control and 190 % of control and 211 % of control
- T/C (dose: 10.0 mg/kg/injection, schedule: Q01DX001 (ip), vehicle: saline): 216 % of control and 220 % of control and 250 % of control
- T/C (dose: 16.0 mg/kg/injection, schedule: Q01DX001 (ip), vehicle: saline): 209 % of control

SMILES: CCCCNC(C)(C)C(SSSC(c1cccs1)C(C)(C)NCCCC)c1cccs1 (stereo not given)
- T/C [1]: 121 % of control
- T/C [2]: 120 % of control
- T/C [3]: 101 % of control
- T/C [4]: 123 % of control
- T/C [5]: 105 % of control
- T/C [6]: 105 % of control

SMILES: CC1(C)C2=CCCC3(OCCO3)C2(C)CCC1O (stereo not given)
- T/C [3]: 90 % of control
- T/C [5]: 90 % of control
- T/C [6]: 90 % of control

SMILES: Nc1nc(N)c2[nH]c(=O)[nH]c2n1
- T/C [1]: 103 % of control
- T/C [2]: 103 % of control
- T/C [4]: 118 % of control

SMILES: CC(C)=CCc1c(OC(=O)c2c(C)cc(O)cc2O)cc(CO)c(CO)c1O
- T/C (dose: 6.25 mg/kg/injection, schedule: Q01DX009 (ip), vehicle: Klucel (hydroxypropylcellulose) (HPC)): 101 % of control
- T/C (dose: 12.5 mg/kg/injection, schedule: Q01DX009 (ip), vehicle: Klucel (hydroxypropylcellulose) (HPC)): 100 % of control and 101 % of control
- T/C (dose: 25.0 mg/kg/injection, schedule: Q01DX009 (ip), vehicle: Klucel (hydroxypropylcellulose) (HPC)): 101 % of control and 96 % of control
- T/C [7]: 101 % of control and 104 % of control
- T/C [8]: 101 % of control and 102 % of control

SMILES: CCOC(=O)C1C[S][Sn]2([NH]1)[NH]C(C(=O)OCC)C[S]2 (stereo not given)
- T/C [9]: 99 % of control
- T/C (dose: 100.0 mg/kg/injection, schedule: Q01DX005 (ip), vehicle: Klucel (hydroxypropylcellulose) (HPC)): 106 % of control
- T/C (dose: 200.0 mg/kg/injection, schedule: Q01DX005 (ip), vehicle: Klucel (hydroxypropylcellulose) (HPC)): 101 % of control

SMILES: CC(=O)NNC(=O)Nc1ccc(Cl)c(Cl)c1
- T/C [7]: 108 % of control
- T/C [8]: 103 % of control
- T/C (dose: 200.0 mg/kg/injection, schedule: Q01DX009 (ip), vehicle: Klucel (hydroxypropylcellulose) (HPC)): 91 % of control

SMILES: O=C1c2ccccc2NC2(C(=O)Nc3ccccc32)N1N1CCOCC1 (stereo not given)
- T/C (dose: 12.5 mg/kg/injection, schedule: Q01DX005 (ip), vehicle: Klucel (hydroxypropylcellulose) (HPC)): 100 % of control
- T/C (dose: 25.0 mg/kg/injection, schedule: Q01DX005 (ip), vehicle: Klucel (hydroxypropylcellulose) (HPC)): 100 % of control
- T/C [9]: 101 % of control
